{"source": "patent US7816521B2", "about": "“1,2,4-benzotriazine-1,4-dioxides” (Auckland Uniservices Limited, priority 2004, dated 2010)", "key": {"HT29 cells": {"test_system": "HT29 cells", "experiment": "First order rate constant for anoxic metabolism in HT29 cells (kmet)", "format": "in vitro ADME, human", "settings": "rate constant of bioreductive metabolism, Table 1", "description": "The apparent first order rate constants for anoxic metabolism in HT29 cells (kmet) of compounds representative of the invention were either: • 1. Estimated at the C10 experimentally by incubating stirred single cell suspensions (typically 10 ml at 2×10^6/ml of HT29 cells derived by trypsinisation of multicellular spheroids) in αMEM without serum in 20 ml bottles under flowing 5% CO2/N2 for 90 min, then introducing the compound using deoxygenated DMSO stock solutions to give a range of final drug concentrations. Samples (0.5 ml) were removed at intervals (typically 5 min, 30 min, 1,2,3 hr), washed by centrifugation, and plated to determine the number of clonogenic survivors as described by Hicks et al Cancer Res. 2003 63, 5970. The concentration of compound giving 1 log of kill at 1 hr (C10) was estimated by interpolation. Additional samples taken at the same times were centrifuged to remove cells, and supernatant stored at −80° C. for subsequent HPLC or LCMS analysis. The concentration of compound in the extracellular medium was plotted against time and the concentration closest to the C10 was used to estimate the first order rate constant. This was scaled to MCL cell density as described in Hicks et al, Cancer Res. 2003, 63, 5970 to obtain kmet. Cell viability was determined with a hemocytometer at the end of drug exposure by staining with 0.4% trypan blue to ensure metabolic viability was >75%. TPZ (30 μM) was included in each experiment as a reference compound. O2, in solution was measured using an OxyLite O2 luminescent fiber optic probe (Oxford Optronix Ltd, UK) to ensure severe hypoxia (<0.1 μM)."}, "[1]": {"experiment": "Plasma pharmacokinetics, AUC of free drug in CD-1 nude mice", "format": "in vivo, mouse", "settings": "for AUC: CD-1 nude, mouse, ip", "description": "The area under the concentration time curve for free drug (AUCf) in mouse plasma at the maximum tolerated dose (MTD) was determined either experimentally or by calculation.\nThe compound was formulated in a suitable vehicle (e.g. 0.9% saline, 5% DMSO in 0.9% saline) and administered intraperitoneally (i.p.) as single dose to CD-1 nude mice in a dose-escalating format using 1.33-fold dose increments.\nThe compound was administered to CD-1 nude mice in a suitable formulation as a single dose (i.p.) at the MTD. Blood samples were collected by retro-orbital sinus bleed or cardiac puncture after which the mouse was culled, or by serial bleeding from the tail vein. Typical time points were 15, 30, 60, and 120 min after administration. Blood was collected in a heparinised container and centrifuged to collect the plasma. The plasma concentration of the compound was determined by HPLC or LCMS using suitable sample preparation and analytical methods. Calibration was done with internal or external standards. The area under the concentration-time curve (AUC) for total (free plus bound) drug was calculated using the linear/log trapezoidal rule and extrapolation to infinity OR standard non-compartmental (PK) modelling.\nPlasma protein binding was measured by the determination of the free fraction (FF) by equilibrium dialysis at 37° C. in 50% (v/v) mouse plasma in phosphate-buffered saline (pH 7.4), using a single drug concentration at or near the observed or extrapolated maximum concentration in plasma (Cmax). Compound concentrations after dialysis were determined by HPLC or LCMS.\nAUCf for the compound administered as a single dose (i.p.) to CD-1 nude mice at the MTD can be estimated using the following regression equation: Log10(AUCf)=a+b×log Pneutral+c×log10(IC50)+d×log10(HCR)+e×log10(DMCL)+f×log10(kmet)+g×(log Pneutral)^2 where the coefficients are described in the following table: […]"}, "[2]": {"experiment": "Solubility in culture medium", "format": "physicochemical", "settings": "culture medium (αMEM with 5% foetal bovine serum), plasma or biological fluid, thermodynamic from solid; culture medium (αMEM, 5% foetal bovine serum), pH 7.4; no unit in table, threshold is 2 mM", "description": "Solubility is determined in laboratory culture medium (alpha minimal essential medium (αMEM) with 5% foetal bovine serum) saturated with 5% carbon dioxide at pH 7.4, by addition of excess compound and sonication at ambient temperature for 15 minutes. Alternatively the compound is diluted from a concentrated stock solution in DMSO into culture medium to give a final DMSO concentration <1%. The mixture is centrifuged at 13,000 rpm for 6 minutes and the concentration of drug in the supernatant solution is then determined by HPLC using a standard reference solution in a suitable solvent."}, "[3]": {"settings": "AUC of free drug, single i.p. dose at maximum tolerated dose, mice, Table 1"}, "[4]": {"settings": "plasma, mouse plasma, free drug, at the MTD or 75% of the MTD, Table 2, read-out: AUC"}, "[5]": {"settings": "plasma, AUC of free drug, single i.p. dose at maximum tolerated dose, mice, Table 1, read-out: AUCf"}}, "note": "Like-named read-outs stand apart in the source and are kept apart here."}
{"smiles": "Nc1n[n+]([O-])c2ccccc2[n+]1[O-]", "note": "[A, tirapazamine, reference compound]", "values": [{"measurement": "kmet", "setting": "HT29 cells", "result": 0.60, "unit": "min⁻¹"}, {"measurement": "AUC", "setting": "[1]; in vivo, AUC", "result": 148, "unit": "µM·h"}, {"measurement": "AUC", "setting": "[1]; in vivo, AUCf", "result": 148, "unit": "µM·h"}, {"measurement": "solubility", "setting": "[2]", "result": 8.9, "unit": "mM"}]}
{"smiles": "Cc1ccc2c(c1)[n+]([O-])c(N)n[n+]2[O-]", "note": "[B, 6-Methyl-1,2,4-benzotriazin-3-amine 1,4-Dioxide]", "values": [{"measurement": "kmet", "setting": "HT29 cells", "result": 0.20, "unit": "min⁻¹"}, {"measurement": "AUCf", "setting": "[1]; [3]", "result": 188.7, "unit": "µM·h"}, {"measurement": "AUC", "setting": "[1]; [4]", "result": 216, "unit": "µM·h"}, {"measurement": "solubility", "setting": "[2]", "result": 3.02, "unit": "mM"}]}
{"smiles": "Nc1n[n+]([O-])c2cc(Cl)ccc2[n+]1[O-]", "note": "[C, 7-Chloro-1,2,4-benzotriazin-3-amine 1,4-Dioxide]", "values": [{"measurement": "kmet", "setting": "HT29 cells", "result": 3.92, "unit": "min⁻¹"}, {"measurement": "AUC", "setting": "[1]; [5]", "result": 1.9, "unit": "µM·h"}, {"measurement": "AUC", "setting": "[1]; [4]", "result": 2.7, "unit": "µM·h"}, {"measurement": "solubility", "setting": "[2]", "result": 0.09, "unit": "mM"}]}
{"smiles": "Nc1n[n+]([O-])c2c(Cl)cccc2[n+]1[O-]", "note": "[D, 8-Chloro-1,2,4-benzotriazin-3-amine 1,4-Dioxide]", "values": [{"measurement": "kmet", "setting": "HT29 cells", "result": 10.03, "unit": "min⁻¹"}, {"measurement": "AUC", "setting": "[1]; [5]", "result": 0.8, "unit": "µM·h"}, {"measurement": "AUC", "setting": "[1]; [4]", "result": 0.7, "unit": "µM·h"}, {"measurement": "solubility", "setting": "[2]", "result": 2.22, "unit": "mM"}]}
{"smiles": "CS(=O)(=O)c1ccc2c(c1)[n+]([O-])nc(N)[n+]2[O-]", "note": "[E, 7-(Methylsulfonyl)-1,2,4-benzotriazin-3-amine 1,4-Dioxide]", "values": [{"measurement": "kmet", "setting": "HT29 cells", "result": 1.00, "unit": "min⁻¹"}, {"measurement": "AUC", "setting": "[1]; [5]", "result": 15.6, "unit": "µM·h"}, {"measurement": "AUC", "setting": "[1]; [4]", "result": 15.6, "unit": "µM·h"}, {"measurement": "solubility", "setting": "[2]", "result": 0.49, "unit": "mM"}]}
{"smiles": "Cc1ccc2c(c1)[n+]([O-])nc(NCCN(C)C)[n+]2[O-]", "note": "[F, 7-Methyl-N-[2-(dimethylamino)ethyl]-1,2,4-benzotriazin-3-amine 1,4-Dioxide]", "values": [{"measurement": "kmet", "setting": "HT29 cells", "result": 2.54, "unit": "min⁻¹"}, {"measurement": "AUC", "setting": "[1]; [5]", "result": 3.5, "unit": "µM·h"}, {"measurement": "AUC", "setting": "[1]; [4]", "result": 3.9, "unit": "µM·h"}, {"measurement": "solubility", "setting": "[2]", "result": 38.7, "unit": "mM"}]}
{"smiles": "CCCN(CCC)CCNc1n[n+]([O-])c2ccccc2[n+]1[O-]", "note": "[G]", "values": [{"measurement": "kmet", "setting": "HT29 cells", "result": 4.89, "unit": "min⁻¹"}, {"measurement": "AUCf", "setting": "[1]; [3]", "result": 7.2, "unit": "µM·h"}, {"measurement": "AUC", "setting": "[1]; [4]", "result": 7.1, "unit": "µM·h"}, {"measurement": "solubility", "setting": "[2]", "result": 26, "unit": "mM"}]}
{"smiles": "Cc1ccc2c(c1)[n+]([O-])c(NCCN(C)C)n[n+]2[O-]", "note": "[H, N^1,N^1-Dimethyl-N^2-(6-methyl-1,4-dioxido-1,2,4-benzotriazin-3-yl)-1,2-ethanediamine]", "values": [{"measurement": "kmet", "setting": "HT29 cells", "result": 1.52, "unit": "min⁻¹"}, {"measurement": "AUCf", "setting": "[1]; [3]", "result": 69.0, "unit": "µM·h"}, {"measurement": "AUC", "setting": "[1]; [4]", "result": 67.8, "unit": "µM·h"}, {"measurement": "solubility", "setting": "[2]", "result": 52, "unit": "mM"}]}
{"smiles": "CCc1n[n+]([O-])c2ccccc2[n+]1[O-]", "note": "[I]", "values": [{"measurement": "kmet", "setting": "HT29 cells", "result": 1.91, "unit": "min⁻¹"}, {"measurement": "AUC", "setting": "[1]; [5]", "result": 141, "unit": "µM·h"}, {"measurement": "AUC", "setting": "[1]; [4]", "result": 139, "unit": "µM·h"}, {"measurement": "solubility", "setting": "[2]", "result": 14.5, "unit": "mM"}]}
{"smiles": "COCCc1n[n+]([O-])c2ccccc2[n+]1[O-]", "note": "[J]", "values": [{"measurement": "kmet", "setting": "HT29 cells", "result": 2.01, "unit": "min⁻¹"}, {"measurement": "AUC", "setting": "[1]; [5]", "result": 79, "unit": "µM·h"}, {"measurement": "AUC", "setting": "[1]; [4]", "result": 83.5, "unit": "µM·h"}, {"measurement": "solubility", "setting": "[2]", "result": 21, "unit": "mM"}]}
{"smiles": "[O-][n+]1nc(NCCCCCCNc2c3ccccc3nc3ccccc23)[n+]([O-])c2ccccc21", "note": "[K]", "values": [{"measurement": "kmet", "setting": "HT29 cells", "result": 18.33, "unit": "min⁻¹"}, {"measurement": "AUC", "setting": "[1]; [5]", "result": 0.042, "unit": "µM·h"}, {"measurement": "solubility", "setting": "[2]", "result": 0.024, "unit": "mM"}]}
{"smiles": "CN(CCCNC(=O)c1cccc2cc3ccccc3nc12)CCCNc1n[n+]([O-])c2ccccc2[n+]1[O-]", "note": "[L]", "values": [{"measurement": "kmet", "setting": "HT29 cells", "result": 9.18, "unit": "min⁻¹"}, {"measurement": "AUC", "setting": "[1]; [5]", "result": 3.6, "unit": "µM·h"}, {"measurement": "AUC", "setting": "[1]; [4]", "result": 3.3, "unit": "µM·h"}, {"measurement": "solubility", "setting": "[2]", "result": 0.45, "unit": "mM"}]}
{"smiles": "CN(CCCNC(=O)c1cccc2ccc(-c3ccncc3)nc12)CCCNc1n[n+]([O-])c2ccccc2[n+]1[O-]", "note": "[M]", "values": [{"measurement": "kmet", "setting": "HT29 cells", "result": 9.13, "unit": "min⁻¹"}, {"measurement": "AUC", "setting": "[1]; [5]", "result": 0.9, "unit": "µM·h"}, {"measurement": "AUC", "setting": "[1]; [4]", "result": 1.2, "unit": "µM·h"}, {"measurement": "solubility", "setting": "[2]", "result": 3.8, "unit": "mM"}]}
{"smiles": "Cc1ccc2c(c1)[n+]([O-])c(NCCCN(C)CCCNC(=O)c1cccc3cc4ccccc4nc13)n[n+]2[O-]", "note": "[N]", "values": [{"measurement": "kmet", "setting": "HT29 cells", "result": 4.74, "unit": "min⁻¹"}, {"measurement": "AUC", "setting": "[1]; [5]", "result": 1.3, "unit": "µM·h"}, {"measurement": "AUC", "setting": "[1]; [4]", "result": 1.6, "unit": "µM·h"}, {"measurement": "solubility", "setting": "[2]", "result": 32.4, "unit": "mM"}]}
